Assay results taken from patent US20260327239A1, “COMPOUNDS FOR COVALENT INHIBITION OF SHP2” (Purdue Research Foundation, priority 2023, published 2026).
Entries after “also recorded” stand apart in the source; their conditions may differ.

Experiments:
SHP2 (residues 224-528) = target: T1, SHP2 (residues 224-528) (Homo sapiens, UniProt Q06124); test: Kinetic characterization of SHP2 inactivation (pNPP cleavage progress curves, kobs, kinact/KI); assay type: biochemical; details: for kinact/KI: pH 7, role: inhibitor, read-out: kinact/KI (converted); for kinact/KI / KI (inactivation) / kinact: substrate pNPP 3 mM, 100 nM SHP2, pH 7.0, 25° C; for fold increase in efficacy compared to PVSN: kinact/KI relative to PVSN
T1 construct: 4× solution of SHP2 (residues 224-528)
T1 sequence (Q06124 224-528): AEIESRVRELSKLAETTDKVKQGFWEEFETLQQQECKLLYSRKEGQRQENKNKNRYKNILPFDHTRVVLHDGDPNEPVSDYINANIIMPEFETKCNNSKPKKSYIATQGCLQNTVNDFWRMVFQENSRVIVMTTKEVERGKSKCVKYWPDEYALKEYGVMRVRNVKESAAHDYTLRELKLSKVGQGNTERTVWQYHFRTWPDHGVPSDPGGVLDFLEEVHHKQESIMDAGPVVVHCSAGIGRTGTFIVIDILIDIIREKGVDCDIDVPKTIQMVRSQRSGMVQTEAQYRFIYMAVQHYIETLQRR
Text: Covalent inhibitors work by forming a covalent bond with a reactive functional group in the target enzyme. Consequently, the kinetics for enzyme inactivation by a covalent inhibitor is not an equilibrium process as with reversible inhibition. The potency of a reversible inhibitor can be measured by its IC50 value. Unlike reversible inhibitors, where inhibition is only concentration-dependent, covalent inhibitors show both time- and concentration-dependent target inhibition (a covalent bond formation is a time-dependent event). If sufficient time is available, covalent inhibitors can completely neutralize the target, rather than go to equilibrium. As a result, the potency and selectivity of a covalent inhibitor cannot be determined by IC50 values; instead, the rate of inactivation of the target (kinact) and the inhibition constant (KI) were determined. The bimolecular rate constant (kinact/KI), was chosen to rank the potency of covalent inhibitors (Ruddraraju et al., 2017, Molecular Biosystems 13(7), 1257-1279).
PTPs catalyze the dephosphorylation of tyrosine-phosphorylated protein substrates through a conserved mechanism that relies on a catalytic cysteine residue (Zhang, Z.-Y et al., 2003, Prog. Nucleic Acid Research Molecular Biology, 73, 171-220). This provides a mechanistic rationale for the assessment of electrophilic Michael acceptors, such as those synthesized in the present disclosure as potential covalent inhibitors of the SHP2. The enzymatic cleavage of para-nitrophenyl phosphate by SHP2 was measured over time in the presence of 100 μM inhibitor or DMSO, to determine the observed first-order rate constant (kobs). Based on kobs values, compounds were further evaluated in a dose-dependent manner to determine the second-order rate constant (kinact/KI) indicating the overall efficacy of the compounds, which was used to assess the structure-activity relationship (SAR) for the analogs of interest and design additional analogs (see Table 1). […] It has been known that modifications to the electronegativity of substituents proximal to electrophilic centers alter the reactivity of the electrophile.
The efficacy of covalent inhibitors can be broken down into the initial reversible binding of the compounds (KI), and the rate of covalent bond formation and enzyme inactivation (kinact). These two constants can be used individually, or as a ratio to determine the overall efficacy of the inhibitor's efficacy. To investigate the contribution to reversible binding compound (34) was evaluated, which lacks the carbonyl of the Michael acceptor to prevent the formation of a covalent adduct.
Inhibitors were evaluated for their ability to inhibit the reaction catalyzed by SHP2 using para-nitrophenyl phosphate (pNPP) as a substrate at pH 7 and 25° C. A 2× solution of inhibitor was diluted into DMG buffer (50 mM 3,3-dimethylglutarate pH 7.0, 1 mM EDTA, ionic strength adjusted to 150 mM using NaCl) was added to a clear flat-bottom 96-well plate (Corning Costar Assay Plate #9017), and serially diluted 1.5-fold, resulting in 100 μL volumes of varying inhibitor concentrations. To this was added a 4× solution of pNPP (12 mM) in DMG buffer. The reaction was initialized by the addition of a 4× solution of SHP2 (residues 224-528), resulting in a final solution of: inhibitor (100-0 μM), pNPP (3 mM), and SHP2 (100 nM). The plate was then monitored for a change in absorbance ab […] using a CLARIOstar^Plus plate reader (BMG Labetch) over the course of an hour. The resulting progress curves for each inhibitor were imported into Graphpad Prism 9 (GraphPad Software, San Diego, CA (USA)), and a baseline correction analysis was completed for fitting purposes. Each curve was fit to the equation Y=V0×(1−e^−kobs*t)/kobs.^[17.22] The kobs values were then plotted against inhibitor concentrations. If the resulting graph was linear, the kinact/KI value was determined by the slope of that line and the 95% confidence interval (95% CI). […]

SHP2 [1] = target: T2, SHP2 (Homo sapiens, UniProt Q06124); test: Covalent adduct formation on SHP2 by intact protein LC-MS; assay type: binding; details: 10 μM SHP2, 60 minutes; for Found Ligand Adduct (mass shift): intact protein LC-MS; for % SHP2 Reacted (overall adduct formation): PVSN at 20 μM, compound 37 at 10 μM
T2 construct: 4× solution of SHP2 (residues 224-528)
T2 sequence (Q06124 224-528): T1 sequence (Q06124 224-528)
Protocol: To validate covalent modification of SHP2 by the active compounds, adduct formation on SHP2 was measured by intact protein liquid chromatography-mass spectrometry (LC-MS). With intact protein LC-MS, multiply charged states of the protein species can be deconvoluted to achieve the total mass(es). Compounds were incubated with 10 μM SHP2 for 60 minutes before being quenched with acetonitrile for LC-MS analysis by electrospray ionization (ESI) in positive mode. […] (33), and (42) (FIGS. 3A and 3B).
To unfold protein and quench protein-ligand reactivity, 10 μL of treated or untreated 10 μM SHP2 was diluted in 40 μL of 80% (v/v) formic acid initially, followed by 150 μL of LC-MS buffer (50/50 water/acetonitrile with 0.1% formic acid). 20-25 pmol per sample was analyzed by LC/MS (Agilent 1260 Infinity II with a ZORBAX Rapid Resolution High Definition 300 Å Stable Bond C3, 2.1×100 mm, 1.8 μm column) attached to an Agilent 6129 quadrupole mass spectrometer in positive ion mode. The column was held at 45° C. Mobile solution A was 0.1% formic acid in water, and mobile phase B was 0.1% formic acid in acetonitrile. The gradient used was hold at 10% B for 5 min, increase linearly to 80% B for 15 min, and then hold at 80% B for 5 min. The mass data were collected at a range of 600-1500 m/z. Raw data were processed using MestReNova. For all samples, the deconvoluted mass was calculated by taking the m/z range of 730-1100 Da, and deconvoluted mass range from 36500-37200 Da. An abundance threshold of 10% and tolerance of 30 ppm was set for deconvolution. Unreacted SHP2's total deconvoluted mass was 36602±10 Da; for each deconvolution, the highest deconvoluted mass intensity was utilized as the mass pivot point to determine and identify reacted SHP2 adducts. To calculate the percent SHP2 reacted, the relative abundance intensity of reacted SHP2 was divided by the total relative abundance intensities of unreacted and reacted SHP2.

SHP2 [2] = target: T2, SHP2; test: Active site protection by vanadate (jump-dilution assay); assay type: biochemical; details: role: inhibitor, 10 min, diluted 100-fold into 10 mM pNPP
Protocol: To further support a covalent mechanism of action and engagement of the SHP2 active site, a jump-dilution assay was employed both in the presence and absence of the known reversible PTP active site competitive inhibitor vanadate (VO4) (Seiner, D. R. et al., Chem. Res. Toxicol. 2007, 20, 1315-1320) In this experiment, SHP2 was co-incubated with 100 μM compound (10) and 500 μM vanadate or DMSO for 10 minutes. The enzyme-inhibitor complex was then rapidly diluted 100-fold into a buffered solution containing 10 mM pNPP, and the absorbance at 405 nm was immediately monitored over time to determine the remaining enzymatic activity.
A solution containing 500 μM Vanadate or DMSO, 4 μM SHP2, and 100 μM (10) or DMSO in DMG buffer (with no EDTA) was added to a clear flat-bottom 96-well plate (Corning Costar Assay Plate #9017). This was allowed to incubate for 10 minutes at 25° C. before transferring 3 μL to a new clear flat-bottom 96-well plate (Corning Costar Assay Plate #9017). To each well was added 297 μL of 10.1 mM pNPP in DMG buffer (with EDTA) and the plate Plates were then read for absorbance at 405 nm using a CLARIOstar^Plus plate reader (BMG Labetch). Data was imported into Graphpad Prism 9 (GraphPad Software, San Diego, CA (US)), and a baseline correction analysis was completed for fitting purposes.

SMILES: C=C1C(=O)[C@@]2(C(=O)OC)CC(=O)C[C@@H]1C2 [Compound 10]
- kinact/KI (SHP2 (residues 224-528)): 20.5 M⁻¹ s⁻¹
- fold increase in efficacy compared to PVSN (SHP2 (residues 224-528); role: inhibitor): approximately 6 fold
- Found Ligand Adduct (mass shift) (SHP2 [1]): 206 Da
- % SHP2 Reacted (overall adduct formation) (SHP2 [1]): 34%
- residual SHP2 activity after jump-dilution (SHP2 [2]; 100 μM compound (10) alone): negligible residual enzymatic activity; also recorded: Little residual activity was detected
- residual SHP2 activity after jump-dilution with vanadate (SHP2 [2]; 100 μM compound (10) with 500 μM vanadate (competitive inhibitor)): substantial residual activity; also recorded: protected from inactivation

SMILES: C=C1C(=O)[C@@]2(C(=O)N3CCN(c4ccc(Br)cc4)CC3)CC(=O)C[C@@H]1C2 [Compound 33]
- kinact/KI (SHP2 (residues 224-528)): 367 M⁻¹ s⁻¹
- KI (inactivation) (SHP2 (residues 224-528); role: inhibitor): 69.7 µM
- kinact (SHP2 (residues 224-528); role: inhibitor): 0.0219 s⁻¹
- Found Ligand Adduct (mass shift) (SHP2 [1]): 412 Da
- % SHP2 Reacted (overall adduct formation) (SHP2 [1]): 30%

SMILES: C=C1C(=O)[C@@]2(C(=O)N3CCN(c4ccc(C(F)(F)F)cc4)CC3)CC(=O)C[C@@H]1C2 [Compound 42]
- kinact/KI (SHP2 (residues 224-528)): 417 M⁻¹ s⁻¹
- fold increase in efficacy over compound 11 (SHP2 (residues 224-528); role: inhibitor, kinact/KI relative to 11): 29 fold
- fold increase in efficacy compared to PVSN (SHP2 (residues 224-528); role: inhibitor): 119 fold
- KI (inactivation) (SHP2 (residues 224-528); role: inhibitor): 47.8 µM
- kinact (SHP2 (residues 224-528); role: inhibitor): 0.0199 s⁻¹
- Found Ligand Adduct (mass shift) (SHP2 [1]): 410 Da
- % SHP2 Reacted (overall adduct formation) (SHP2 [1]): 43%

SMILES: C=CS(=O)(=O)Oc1ccccc1 [PVSN, phenyl vinyl sulfonate, reference compound]
- kinact/KI (SHP2 (residues 224-528)): 3.52 M⁻¹ s⁻¹
- % SHP2 Reacted (overall adduct formation) (SHP2 [1]): 21%

SMILES: [O]=[V]([O-])([O-])[O-] [vanadate, reference compound]
- SHP2 activity recovery after jump-dilution, vanadate alone (SHP2 [2]; 500 μM vanadate, compared to DMSO control): fully recovered activity
